Measured values from patent EP4371976B1, “IONIZABLE LIPIDS AND LIPID NANOPARTICLES CONTAINING THEREOF” (Certest Biotec, S.L., priority 2022, dated 2024).

Key:
[1] = Apparent pKa of LNPs comprising the ionizable lipid (Table 6); details: standard formulation 50:10:38.5:1.5
[2] = Size distribution, polydispersity and Z-potential of LNPs by dynamic light scattering (Malvern Zetasizer); type: physicochemical; details: LNPs, standard formulation 50:10:38.5:1.5; DLS
Experimental: (§1) The LNP solution was then adjusted to a final concentration of mRNA of 100 µg/ml. Size distribution, polydispersity and Z-potential were measured by dynamic light scattering (DLS) using Malvern Zetasizer Advance Lab Blue Label. RNA encapsulation was assessed by Quant-IT® Ribogreen following the manufacturer's instructions.

[3] = RNA encapsulation efficiency of LNPs by Quant-IT Ribogreen; type: physicochemical; details: LNPs with luciferase mRNA; ionizable lipid:non-cationic lipid:sterol:PEG-modified lipid 50:10:38.5:1.5; percentage of RNA entrapped in the LNP
Experimental: The mRNA aqueous solution was then carefully added to the ethanol solution, and the resulted solution was homogenized by pipetting up and down for 4-5 times. The resulting LNPs were immediately diluted 1:1 with Tris buffer and dialyzed overnight against Tris buffer containing 15% sucrose. The resulting LNP solution was then collected, and the encapsulated mRNA was assessed by Quant-IT® Ribogreen (Invitrogen R11490) following the manufacturer's instructions.
as §1

Compound	Apparent pKa [1]	P.D.I. [2]	Particle size/ Ø (nm) [2] [nm]	Z Potential (± D.E.) [mV] [2] [mV]	Encaps. efficiency (%) [3] [%]
CCCCCCCCCCCCOC(=O)CCSCCC(C(=O)NCCCn1ccnc1)C(=O)OC(CCCCCCCC)CCCCCCCC (stereo not shown) [VC-LC-0366]	6.33	0.16	122.6	-13.24	89.18
CCCCCCCCCCCCCCCCOC(=O)CCSCCC(C(=O)NCCCn1ccnc1)C(=O)OC(CCCCCCCC)CCCCCCCC (stereo not shown) [VC-LC-0369]	6.02	0.15	137.6	-10.72	92.05
CCCCCCCC#CCOC(=O)CCSCCC(NC(=O)CCCCCCCCCCCCCCCCC)C(=O)NCCCN1CCOCC1 (stereo not shown) [VC-LC-0390]	6.10	0.24	192.8	-1.14	83.80
CCCCCCCCCCCCCOC(=O)CCSCCC(NC(=O)C(CCCCCC)CCCCCCCC)C(=O)NCCN1CCOCC1 (stereo not shown) [VC-LC-0392]	4.72	0.19	136.1	-11.14	40.58
CCCCCCCCCCCCC(CCCCCCCCCC)COC(=O)CCSCCC(NC(=O)C(CCCCCC)CCCCCCCC)C(=O)NCCN1CCOCC1 (stereo not shown) [VC-LC-0407]	4.66	0.1	167.1	-12.36	60.22
CCCCCCCC#CCOC(=O)CCSCCC(NC(=O)C(CCCCCC)CCCCCCCC)C(=O)NCCN1CCOCC1 (stereo not shown) [VC-LC-0408]	4.83	0.25	168.1	-15.07	41.23
CCCCCCCCCCCCC(CCCCCCCCCC)COC(=O)CCSCCC(NC(=O)C(CCCCCC)CCCCCCCC)C(=O)NC1CCN(C)CC1 (stereo not shown) [VC-LC-0428]	5.84	0.11	185.3	-8.34	65.37
CCCCCCCC#CCOC(=O)CCSCCC(NC(=O)C(CCCCCC)CCCCCCCC)C(=O)NC1CCN(C)CC1 (stereo not shown) [VC-LC-0429]	6.48	0.14	155.6	-12.49	46.96
CCCCCCCC/C=C\CCCCCCCCOC(=O)CCSCCC(NC(=O)C(CCCCCC)CCCCCCCC)C(=O)NC1CCN(C)CC1 (stereo not shown) [VC-LC-0430]	7.00	0.23	216.2	1.65	84.48
CCCC#CCCOC(=O)CCSCCC(NC(=O)C(CCCCCC)CCCCCCCC)C(=O)NC1CCN(C)CC1 (stereo not shown) [VC-LC-0432]	6.44	0.29	126.9	-16.42	46.27
CCCCCCCCCCCCCCCCCC(=O)NC(CCSCCC(=O)OCC(CCCCCC)CCCCCCCC)C(=O)NC1CCN(C)CC1 (stereo not shown) [VC-LC-0433]	7.75	0.13	180.8	4.87	96.77
CCCCCCCCCCCCCCCCCC(=O)NC(CCSCCC(=O)OCCCCCCCCCCCC)C(=O)NC1CCN(C)CC1 (stereo not shown) [VC-LC-0434]	5.72	0.2483	214.6	1.34	99.09
CCCCCCCC/C=C\CCCCCCCCOC(=O)CCSCCC(NC(=O)CCCCCCCCCCCCCCCCC)C(=O)NC1CCN(C)CC1 (stereo not shown) [VC-LC-0438]	6.61	0.15	181.3	7.19	95.26
CCCCCCCCCCCCCCOC(=O)CCSCCC(C(=O)NC1CCN(C)CC1)C(=O)OC(CCCCCCCC)CCCCCCCC (stereo not shown) [VC-LC-0444]	6.28	0.07	185.7	-3.35	85.85
CCCCCCCCCCCCCCCCOC(=O)CCSCCC(C(=O)NC1CCN(C)CC1)C(=O)OC(CCCCCCCC)CCCCCCCC (stereo not shown) [VC-LC-0445]	5.82			-10.64	48.02
CCCCCCCCCCCCCOC(=O)CCSCCC(NC(=O)C(CCCCCC)CCCCCCCC)C(=O)NCCN(CC)CC (stereo not shown) [VC-LC-0473]	6.73	0.085	134.0	-7.78	43.07

Compound	Apparent pKa [1]	P.D.I. [2]	Particle size/ Ø (nm) [2] [nm]	Z Potential (± D.E.) [mV] [2] [mV]	Encaps. efficiency (%) [3] [%]
CCCCCCCCC(CCCCCC)COC(=O)CCSCCC(NC(=O)C(CCCCCC)CCCCCCCC)C(=O)NCCN(CC)CC (stereo not shown) [VC-LC-0474]	5.61	0.21	153.2	-7.69	66.27
CCCCCCCCC(CCCCCC)C(=O)NC(CCSCCC(=O)OCCCCCCCC(C)C)C(=O)NCCN(CC)CC (stereo not shown) [VC-LC-0475]	6.59	0.13	135	-4.72	52.31
CCCCCCCCCCCCOC(=O)CCSCCC(NC(=O)C(CCCCCC)CCCCCCCC)C(=O)NCCN(CC)CC (stereo not shown) [VC-LC-0477]	6.65	0.15	146.7	-9.55	57.43
CCCCCCCCCCCCCCOC(=O)CCSCCC(NC(=O)C(CCCCCC)CCCCCCCC)C(=O)NCCN(CC)CC (stereo not shown) [VC-LC-0478]	6.82	0.17	156.2	-7.01	65.16
CCCCCCCCCCCCCCCCOC(=O)CCSCCC(NC(=O)C(CCCCCC)CCCCCCCC)C(=O)NCCN(CC)CC (stereo not shown) [VC-LC-0480]	6.37	0.2	154.5	-6.33	73.32
CCCCCCCC#CCOC(=O)CCSCCC(NC(=O)C(CCCCCC)CCCCCCCC)C(=O)NCCN(CC)CC (stereo not shown) [VC-LC-0488]	6.79	0.16	149.1	-4.15	62.45
CCCCCCCC/C=C\CCCCCCCCOC(=O)CCSCCC(NC(=O)C(CCCCCC)CCCCCCCC)C(=O)NCCN(CC)CC (stereo not shown) [VC-LC-0489]	6.03	0.13	143.8	-5.88	60.57
CCCCCCCCC(CCCCCC)C(=O)NC(CCSCCC(=O)OCCCCCCCC(C)C)C(=O)NCC1CCN(C)CC1 (stereo not shown) [VC-LC-0492]	7.47	0.16	150.9	0.83	98.15
CCCCCCCCC(CCCCCC)C(=O)NC(CCSCCC(=O)OCC(CC)CCCC)C(=O)NCC1CCN(C)CC1 (stereo not shown) [VC-LC-0493]	6.46	0.12	128.8	-0.57	98.56
CCCCCCCCCCCCOC(=O)CCSCCC(NC(=O)C(CCCCCC)CCCCCCCC)C(=O)NCC1CCN(C)CC1 (stereo not shown) [VC-LC-0494]	6.86	0.22	169.8	5.52	98.99
CCCCCCCCC(CCCCCC)C(=O)NC(CCSCCC(=O)OCCCCCC(C)C)C(=O)NCC1CCN(C)CC1 (stereo not shown) [VC-LC-0498]	7.47	0.15	152.3	1.06	99.46
CCCCCCCC#CCOC(=O)CCSCCC(NC(=O)C(CCCCCC)CCCCCCCC)C(=O)NCC1CCN(C)CC1 (stereo not shown) [VC-LC-0505]	6.74		168.6	-2.94	99.88
CCCCCCCCCCC(CCCCCCCC)C(=O)NC(CCSCCC(=O)OCCCCCCCC(C)C)C(=O)NCC1CCN(C)CC1 (stereo not shown) [VC-LC-0509]	7.60	0.23	170.1	0.25	98.62
CCCCCCCCCCC(CCCCCCCC)C(=O)NC(CCSCCC(=O)OCC(CC)CCCC)C(=O)NCC1CCN(C)CC1 (stereo not shown) [VC-LC-0510]	7.39	0.15	144.9	-2.73	97.61
CCCCCCCCCCCCOC(=O)CCSCCC(NC(=O)C(CCCCCCCC)CCCCCCCCCC)C(=O)NCC1CCN(C)CC1 (stereo not shown) [VC-LC-0511]	6.85	0.14	155.6	4.06	98.97
CCCCCCCCCCC(CCCCCCCC)C(=O)NC(CCSCCC(=O)OCCCCCC)C(=O)NCC1CCN(C)CC1 (stereo not shown) [VC-LC-0518]	6.67	0.17	149.1	3.90	97.70
